Laboratory results: patent EP0184291B1, “Polyether antibiotic A80190” (ELI LILLY AND COMPANY, priority 1984, dated 1986)
Where a SMILES comes first, the peptide text is derived from it. Bridges are numbered along the chain shown (N, C = ends). [ ]: non-standard residue; d: D form. The star is where a group is joined. Ileψ(thiazoline)Cys = CC[C@H](C)[C@H](N)C1=N[C@H](C(=O)*)CS1; dOrn = NCCC[C@@H](N)C(=O)O

Assays:
NRRL 15878 = assay: Resistance to antibiotics, sensitivity discs on seeded ISP No. 2 agar; assay type: cell-based, Actinomadura oligospora
Experimental: (§1) Resistance to antibiotics was measured by padding antibiotic sensitivity discs onto the surface of seeded ISP No. 2 agar plates.
(§2) Table III lists the resistance of the strain to various antibiotics at the concentrations indicated and compares it to that of A. macra.

A. macra = assay: as above; assay type: cell-based
Experimental: as §1, §2

## CC[C@H](C)[C@H](N)C1=N[C@H](C(=O)N[C@@H](CC(C)C)C(=O)N[C@H](CCC(=O)O)C(=O)N[C@H](C(=O)N[C@H]2CCCCNC(=O)[C@H](CC(N)=O)NC(=O)[C@@H](CC(=O)O)NC(=O)[C@H](Cc3cnc[nH]3)NC(=O)[C@@H](Cc3ccccc3)NC(=O)[C@H]([C@@H](C)CC)NC(=O)[C@@H](CCCN)NC2=O)[C@@H](C)CC)CS1 [Bacitracin] ({Ileψ(thiazoline)Cys}-L[dE]IK[dOrn]I[dF]H[dD]N; lactam 4-C)
NRRL 15878; Concentration 10 units
  Resistance to Antibiotics: +
A. macra; Concentration 10 units
  Resistance to Antibiotics: -

## CN(C)[C@@H]1C(O)=C(C(N)=O)C(=O)[C@@]2(O)C(O)=C3C(=O)c4c(O)cccc4[C@@](C)(O)[C@H]3C[C@@H]12 [Tetracycline]
A. macra; Concentration 30 µg
  Resistance to Antibiotics: -

## CN[C@H](CC(C)C)C(=O)N[C@H]1C(=O)N[C@@H](CC(N)=O)C(=O)N[C@H]2C(=O)N[C@H]3C(=O)N[C@H](C(=O)N[C@H](C(=O)O)c4cc(O)cc(O)c4-c4cc3ccc4O)[C@H](O)c3ccc(c(Cl)c3)Oc3cc2cc(c3O[C@@H]2O[C@H](CO)[C@@H](O)[C@H](O)[C@H]2O[C@H]2C[C@](C)(N)[C@H](O)[C@H](C)O2)Oc2ccc(cc2Cl)[C@H]1O [Vancomycin]
NRRL 15878; Concentration 30 µg
  Resistance to Antibiotics: -
A. macra; Concentration 30 µg
  Resistance to Antibiotics: -

## [H]/N=C(/N)N[C@H]1[C@H](O)[C@@H](O)[C@H](O[C@@H]2O[C@@H](C)[C@](O)(C=O)[C@H]2O[C@@H]2O[C@@H](CO)[C@H](O)[C@@H](O)[C@@H]2NC)[C@@H](N/C(N)=N\[H])[C@@H]1O [Streptomycin]
A. macra; Concentration 10 µg
  Resistance to Antibiotics: +

## CO[C@H]1/C=C/O[C@@]2(C)Oc3c(C)c(O)c4c(O)c(c(/C=N/N5CCN(C)CC5)c(O)c4c3C2=O)NC(=O)/C(C)=C\C=C\[C@H](C)[C@H](O)[C@@H](C)[C@@H](O)[C@@H](C)[C@H](OC(C)=O)[C@@H]1C [Rifampin]
A. macra; Concentration 5 µg
  Resistance to Antibiotics: +

## CC1(C)S[C@@H]2[C@H](NC(=O)Cc3ccccc3)C(=O)N2[C@H]1C(=O)O [Pencillin G]
A. macra; Concentration 10 units
  Resistance to Antibiotics: +

## CC(=O)OCC1=C(C(=O)O)N2C(=O)[C@@H](NC(=O)Cc3cccs3)[C@H]2SC1 [Cephalothin]
A. macra; Concentration 30 µg
  Resistance to Antibiotics: +

## Gentamicin
NRRL 15878; Concentration 10 µg
  Resistance to Antibiotics: -
A. macra; Concentration 10 µg
  Resistance to Antibiotics: -
